Each compound was assayed against T1, human SGLT1 (Homo sapiens, UniProt P13866) (assay: Determination of SGLT1 inhibiting activity using human SGLT1 expressing cell ([14C]-α-methyl-D-glucopyranoside uptake)). Conditions: HEK-SGLT1 cells, 1 mM [14C]-α-methyl-D-glucopyranoside, 37° C., 30 min.
T1 construct: expressed in transfected cells
T1 sequence (P13866 1-664): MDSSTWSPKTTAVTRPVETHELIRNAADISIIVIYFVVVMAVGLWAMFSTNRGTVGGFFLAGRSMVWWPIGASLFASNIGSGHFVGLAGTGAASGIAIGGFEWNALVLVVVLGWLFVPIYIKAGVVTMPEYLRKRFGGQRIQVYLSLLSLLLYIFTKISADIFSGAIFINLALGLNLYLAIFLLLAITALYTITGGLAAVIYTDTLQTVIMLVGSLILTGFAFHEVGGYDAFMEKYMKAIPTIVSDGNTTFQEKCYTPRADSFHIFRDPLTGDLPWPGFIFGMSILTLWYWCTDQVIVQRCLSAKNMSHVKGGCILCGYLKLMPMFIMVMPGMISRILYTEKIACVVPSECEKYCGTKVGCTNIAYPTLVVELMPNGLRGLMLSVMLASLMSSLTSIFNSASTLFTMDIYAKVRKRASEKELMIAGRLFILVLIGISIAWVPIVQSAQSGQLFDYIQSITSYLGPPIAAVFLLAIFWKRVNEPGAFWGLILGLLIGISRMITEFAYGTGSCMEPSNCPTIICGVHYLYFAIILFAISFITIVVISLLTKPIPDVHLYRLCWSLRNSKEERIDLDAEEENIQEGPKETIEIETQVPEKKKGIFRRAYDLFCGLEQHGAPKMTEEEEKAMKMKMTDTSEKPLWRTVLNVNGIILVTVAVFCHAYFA
Format: cell-based
Procedure: Determination of SGLT1 Inhibiting Activity Using Human SGLT1 Expressing Cell
1) Preparation of Vector Expressing Human SGLT1 cDNA in Animal Cell
Amplification was performed by PCR using human SGLT1 cDNA clone (Origene: Clone Number, TC119918; GenBank accession number, NM 000343) as a template. The sense oligonucleotide primer for PCR was 5′-[…]-3′ (Primer 1: SEQ ID NO: 1 in the sequence listing),
and the antisense oligonucleotide primer was 5′-[…]-3′ (Primer 2: SEQ ID NO: 2 in the sequence listing).
The PCR product was subjected to agarose electrophoresis, then a target DNA fragment was recovered from a single band corresponding to 2013 bases, digested with restriction enzymes HindIII and XhoI, and introduced into the HindIII/XhoI site of vector pCMV-Script (Stratagene) to obtain SGLT1 expressing plasmid pCMV-SGLT1. A HindIII/XhoI fragment was excised from pCMV-SGLT1 and introduced into the BamHI/XhoI site of pENTR1A (Gateway, Invitrogen) to prepare pENTR-SGLT1. Retrovirus vector pLPCX (Clontech) into which Gateway Vector Conversion System Cassette A (Invitrogen) was introduced was used as the destination plasmid to prepare SGLT1 expressing retrovirus vector pLPCX-SGLT1.
2) Establishment of Human SGLT1 Expressing Cell
The retrovirus pLPCX-SGLT1 obtained in 1) was transfected into integrin αvβ3 expressing HEK-293 cells and, the cells were treated with antibiotic G418 (brand name, Geneticin: Invitrogen) and puromycin (Clontech) to obtain HEK-SGLT1 cells stably expressing the target vector having resistance. The stably expressing cells were cultured and maintained in DMEM medium containing […] G418, […] puromycin, 3 mM KGT-1075, and 10% FBS.
3) Determination of SGLT1 Inhibiting Activity
HEK-SGLT1 cells were suspended at a density of 10^6 cells/mL in DMEM medium containing […] G418, 1 mg/ml puromycin, and 10% FBS, and 100 μL was seeded in each well of a type 1 collagen-coated 96-well culture plate (Corning). On the following day, the medium was replaced with a sugar uptake buffer (10 mM HEPES [pH 7.5], 5 mM Tris-HCl [pH 7.5], 140 mM NaCl, 2 mM KCl, 1 mM CaCl2, 1 mM MgCl2), and the cells were cultured with 1 mM [^14C]-α-methyl-D-glucopyranoside (0.1 mCi) and the test compound at 37° C. for 30 min and then washed 3 times with a washing buffer (10 mM HEPES [pH 7.5], 5 mM Tris-HCl [pH 7.5], 140 mM choline chloride, 2 mM KCl, 1 mM CaCl2, 1 mM MgCl2). 100 μL of liquid scintillation cocktail (brand name, Supermix: Perkin-Elmer) was added to each well of the 96-well plate and stirred for 10 min, and then radioactivity was determined with micro β (Perkin-Elmer), a type of liquid scintillation counter. The value as the sugar uptake activity was obtained by deducting the radioactivity in the presence of an excess amount of an SGLT1 inhibiting compound as the background from each measured value, the inhibition rate (%) was calculated from the control sugar uptake activity obtained without using a test compound and the sugar uptake activity obtained using a test compound having a predetermined the concentration, and concentrations of the test compound at which the sugar uptake activity was inhibited by 50% were assessed.
Compound COc1ccc(Cc2cc(CO)cnc2O[C@@H]2O[C@H]([C@@H](C)O)[C@@H](O)[C@H](O)[C@H]2O)cc1 [Example 38, 3-(4-Methoxybenzyl)-5-hydroxymethylpyridin-2-yl 7-deoxy-D-glycero-β-D-gluco-heptopyranoside] has an IC50 of 0.207 µM. Work on COc1ccc(Cc2c(C)cc(C)cc2O[C@@H]2O[C@H]([C@@H](C)O)[C@@H](O)[C@H](O)[C@H]2O)cc1 [Example 77, 3,5-Dimethyl-2-(4-methoxybenzyl)phenyl 7-deoxy-D-glycero-β-D-gluco-heptopyranoside] yielded an IC50 of 0.252 µM. Work on C[C@@H](O)[C@H]1O[C@@H](Oc2cc(CO)ccc2Cc2ccc(CCCO)cc2)[C@H](O)[C@@H](O)[C@@H]1O [Example 68, 5-Hydroxymethyl-2-[4-(3-hydroxypropyl)benzyl]phenyl 7-deoxy-D-glycero-β-D-gluco-heptopyranoside] yielded an IC50 of 0.123 µM. Compound CC(C)Oc1ccc(Cc2c(F)cc(CO)cc2O[C@@H]2O[C@H]([C@@H](C)O)[C@@H](O)[C@H](O)[C@H]2O)cc1 [Example 75, 3-Fluoro-5-hydroxymethyl-2-(4-isopropoxybenzyl)phenyl 7-deoxy-D-glycero-β-D-gluco-heptopyranoside] has an IC50 of 0.269 µM. With COc1ccc(Cc2ccc(CO)cc2O[C@@H]2O[C@H]([C@@H](C)O)[C@@H](O)[C@H](O)[C@H]2O)cc1 [Example 9, 2-(4-Methoxybenzyl)-5-hydroxymethylphenyl 7-deoxy-D-glycero-β-D-gluco-heptopyranoside] the IC50 was 0.054 µM. Compound COc1ccc(Cc2c(C)cc(C)cc2O[C@@H]2O[C@H]([C@@H](C)O)[C@@H](O)[C@H](O)[C@H]2O)cc1F [Example 69, 2-(3-Fluoro-4-methoxybenzyl)-3,5-dimethylphenyl 7-deoxy-D-glycero-β-D-gluco-heptopyranoside] has an IC50 of 0.231 µM. Work on C[C@@H](O)[C@H]1O[C@@H](Oc2cc(CO)cc(F)c2Cc2ccc(OC3CC3)cc2)[C@H](O)[C@@H](O)[C@@H]1O [Example 63, 2-(4-Cyclopropoxybenzyl)-3-fluoro-5-hydroxymethyl-phenyl 7-deoxy-D-glycero-β-D-gluco-heptopyranoside] yielded an IC50 of 0.068 µM. COc1ccc(Cc2c(F)cc(CO)cc2O[C@@H]2O[C@H]([C@@H](C)O)[C@@H](O)[C@H](O)[C@H]2O)cc1 [Example 84, 3-Fluoro-5-hydroxymethyl-2-(4-methoxybenzyl)phenyl 7-deoxy-D-glycero-β-D-gluco-heptopyranoside] gave an IC50 of 0.031 µM. C[C@@H](O)[C@H]1O[C@@H](Oc2cc(CO)cc(F)c2Cc2ccc(C3CC3)cc2)[C@H](O)[C@@H](O)[C@@H]1O [Example 88, 2-(4-Cyclopropylbenzyl)-3-fluoro-5-hydroxymethylphenyl 7-deoxy-D-glycero-β-D-gluco-heptopyranoside] was tested, and the IC50 was 0.051 µM. With Cc1cc(CO)cc(O[C@@H]2O[C@H]([C@@H](C)O)[C@@H](O)[C@H](O)[C@H]2O)c1Cc1ccc(OC2CC2)cc1 [Example 96, 2-(4-Cyclopropoxybenzyl)-5-hydroxymethyl-3-methyl-phenyl 7-deoxy-D-glycero-β-D-gluco-heptopyranoside] the IC50 was 0.077 µM. CCc1ccc(Cc2ccc(N)cc2O[C@@H]2O[C@H](C(C)O)[C@@](C)(O)[C@H](O)[C@H]2O)cc1 (stereo partly drawn) [Example 41, 5-Amino-2-(4-ethylbenzyl)phenyl 4-C-methyl-7-deoxy-glycero-β-D-gluco-heptapyranoside] was tested, and the IC50 was 0.087 µM.

— patent US20090137499A1, “BENZYLPHENYL GLUCOPYRANOSIDE DERIVATIVE” (priority 2006, published 2009)
